# Measured values published in patent US20200016159A1, “N3-CYCLICALLY SUBSTITUTED THIENOURACILS AND USE THEREOF” (Bayer Aktiengesellschaft, priority 2016, published 2020).
# Molecular target: T1, human adenosine A2b receptor (Homo sapiens, UniProt P29275)
# T1 sequence (P29275 1-332): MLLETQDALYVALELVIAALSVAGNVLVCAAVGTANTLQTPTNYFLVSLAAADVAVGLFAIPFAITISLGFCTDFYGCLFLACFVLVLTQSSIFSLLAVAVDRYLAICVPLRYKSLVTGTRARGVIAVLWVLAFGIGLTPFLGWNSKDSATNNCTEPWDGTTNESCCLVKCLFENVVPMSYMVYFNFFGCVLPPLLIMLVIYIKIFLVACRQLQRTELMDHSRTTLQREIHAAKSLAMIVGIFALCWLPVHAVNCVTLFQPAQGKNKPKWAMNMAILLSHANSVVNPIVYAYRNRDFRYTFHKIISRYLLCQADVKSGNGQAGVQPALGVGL
# Experiment: Cellular in vitro reporter gene test for A2b receptor activity (antagonism of NECA)
# Assay type: cell-based
# Set-up: expressed in transfected cells; host or cells: CHO-K1 (Chinese hamster ovary) with CRE-luciferase reporter
# Conditions: recombinant CHO-K1 cells, CRE-luciferase reporter, co-incubation with EC50 concentration of NECA, 3 hours
# In short: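 CHO-K1 cells expressing recombinant human A2b receptor plus a CRE-driven firefly luciferase reporter. Compounds co-incubated with NECA at its same-day EC50 concentration; luminescence read 3 hours after NECA addition. IC50 values, sometimes means of several determinations rounded to two significant figures.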
row,Compound,IC50 [nM]
1,"Cc1c(Cn2nc[nH]c2=O)sc2c1c(=O)n(C1(C)CC1)c(=O)n2CC#N [Example 69, [5-Methyl-3-(1-methylcyclopropyl)-2,4-dioxo-6-[(5-oxo-4,5-dihydro-1H-1,2,4-triazol-1-yl)methyl]-3,4-dihydrothieno[2,3-d]pyrimidin-1(2H)-yl]acetonitrile]",120
2,"CCOCCn1c(=O)n(C2(C)CC2)c(=O)c2c(C)c(Cn3nc[nH]c3=O)sc21 [Example 78, 1-(2-Ethoxyethyl)-5-methyl-3-(1-methylcyclopropyl)-6-[(5-oxo-4,5-dihydro-1H-1,2,4-triazol-1-yl)methyl]thieno[2,3-d]pyrimidine-2,4(1H,3H)-dione]",560
3,"Cc1c(Cn2nc[nH]c2=O)sc2c1c(=O)n(C1(C)CC1)c(=O)n2CCOC(C)C [Example 80, 1-(2-Isopropoxyethyl)-5-methyl-3-(1-methylcyclopropyl)-6-[(5-oxo-4,5-dihydro-H-1,2,4-triazol-1-yl)methyl]thieno[2,3-d]pyrimidine-2,4(1H,3H)-dione]",740
4,"Cc1c(Cn2nc[nH]c2=O)sc2c1c(=O)n(C1(C)CC1)c(=O)n2C[C@H]1CCCO1 [Example 83, 5-Methyl-3-(1-methylcyclopropyl)-6-[(5-oxo-4,5-dihydro-1H-1,2,4-triazol-1-yl)methyl]-1-[(2R)-tetrahydrofuran-2-ylmethyl]thieno[2,3-d]pyrimidine-2,4(1H, 3H)-dione]",130
5,"Cc1c(Cn2nc[nH]c2=O)sc2c1c(=O)n(C1(C)CC1)c(=O)n2C[C@@H]1CCCO1 [Example 84, 5-Methyl-3-(1-methylcyclopropyl)-6-[(5-oxo-4,5-dihydro-1H-1,2,4-triazol-1-yl)methyl]-1-[(2S)-tetrahydrofuran-2-ylmethyl]thieno[2,3-d]pyrimidine-2,4(1H,3H)-dione]",460
6,"COCCn1c(=O)n(C2(C(F)(F)F)CC2)c(=O)c2c(C)c(CN3CCNC3=O)sc21 [Example 85, 1-(2-Methoxyethyl)-5-methyl-6-[(2-oxoimidazolidin-1-yl)methyl]-3-[1-(trifluoromethyl)cyclopropyl]thieno[2,3-d]pyrimidine-2,4(1H,3H)-dione]",310
7,"COCCn1c(=O)n(C2(C(F)(F)F)CC2)c(=O)c2c(C)c(CN3CCNC3=NC#N)sc21 [Example 86, [1-({1-(2-Methoxy ethyl)-5-methyl-2,4-dioxo-3-[1-(trifluoromethyl)cyclopropyl]-1,2,3,4-tetrahydrothieno[2,3-d]pyrimidin-6-yl}methyl)imidazolidin-2-ylidene]cyanamide]",270
8,"COCCn1c(=O)n(C2(C(F)(F)F)CC2)c(=O)c2c(C)c(CN3CCNC3=NC(=O)OC)sc21 [Example 87, Methyl [1-({1-(2-methoxyethyl)-5-methyl-2,4-dioxo-3-[1-(trifluoromethyl)cyclopropyl]-1,2,3,4-tetrahydrothieno[2,3-d]pyrimidin-6-yl}methyl)imidazolidin-2-ylidene]carbamate]",140
9,"COCCn1c(=O)n(C2(C(F)(F)F)CC2)c(=O)c2c(C)c(CN3CCNC(=O)C3=O)sc21 [Example 88, 6-[(2,3-Dioxopiperazin-1-yl)methyl]-1-(2-methoxyethyl)-5-methyl-3-[1-(trifluoromethyl)cyclopropyl]thieno[2,3-d]pyrimidine-2,4(1H,3H)-dione]",690
10,"COCCn1c(=O)n(C2(C(F)(F)F)CC2)c(=O)c2c(C)c(Cn3nc[nH]c3=O)sc21 [Example 89, 1-(2-Methoxyethyl)-5-methyl-6-[(5-oxo-4,5-dihydro-1H-1,2,4-triazol-1-yl)methyl]-3-[1-(trifluoromethyl)cyclopropyl]thieno[2,3-d]pyrimidine-2,4(1H,3H)-dione]",1200
11,"CCC1(n2c(=O)c3c(C)c(Cn4nc[nH]c4=O)sc3n(CCC(F)(F)F)c2=O)CC1 [Example 107, 3-(1-Ethylcyclopropyl)-5-methyl-6-[(5-oxo-4,5-dihydro-1H-1,2,4-triazol-1-yl)methyl]-1-(3,3,3-trifluoropropyl)thieno[2,3-d]pyrimidine-2,4(1H,3H)-dione]",290
12,"CCC1(n2c(=O)c3c(C)c(Cn4nc[nH]c4=O)sc3n(CCOC)c2=O)CC1 [Example 109, 3-(1-Ethylcyclopropyl)-1-(2-methoxyethyl)-5-methyl-6-[(5-oxo-4,5-dihydro-H-1,2,4-triazol-1-yl)methyl]thieno[2,3-d]pyrimidine-2,4(1H,3H)-dione]",640

# Now those with a lower IC50, led by results:
row,IC50 [nM],Compound
1,12,"COCCn1c(=O)n(C2(C)CC2)c(=O)c2c(C)c(CN3CCNC3=NC#N)sc21 [Example 71, [1-{[1-(2-Methoxyethyl)-5-methyl-3-(1-methylcyclopropyl)-2,4-dioxo-1,2,3,4-tetrahydrothieno[2,3-d]pyrimidin-6-yl]methyl}imidazolidine-2-ylidene]cyanamide]"
2,15,"COCCn1c(=O)n(C2(C)CC2)c(=O)c2c(C)c(CN3CCNC3=NC(=O)OC)sc21 [Example 72, Methyl [1-{[1-(2-methoxyethyl)-5-methyl-3-(1-methylcyclopropyl)-2,4-dioxo-1,2,3,4-tetrahydrothieno[2,3-d]pyrimidin-6-yl]methyl}imidazolidine-2-ylidene]carbamate]"
3,29,"COCCn1c(=O)n(C2(C)CC2)c(=O)c2c(C)c(CN3CCNC(=O)C3=O)sc21 [Example 73, 6-[(2,3-Dioxopiperazin-1-yl)methyl]-1-(2-methoxyethyl)-5-methyl-3-(1-methylcyclopropyl)thieno[2,3-d]pyrimidine-2,4(1H,3H)-dione]"
4,86,"COCCn1c(=O)n(C2(C)CC2)c(=O)c2c(C)c(Cn3nc[nH]c3=O)sc21 [Example 74, 1-(2-Methoxyethyl)-5-methyl-3-(1-methylcyclopropyl)-6-[(5-oxo-4,5-dihydro-1H-1,2,4-triazol-1-yl)methyl]thieno[2,3-d]pyrimidine-2,4(1H,3H)-dione]"
5,3.3,"Cc1c(CN2CCNC2=O)sc2c1c(=O)n(C1(C)CC1)c(=O)n2CCOC(F)(F)F [Example 75, 5-Methyl-3-(1-methylcyclopropyl)-6-[(2-oxoimidazolidin-1-yl)methyl]-1-[2-(trifluormethoxy)ethyl]thieno[2,3-d]pyrimidine-2,4(1H,3H)-dione]"
6,77,"CCOCCn1c(=O)n(C2(C)CC2)c(=O)c2c(C)c(CN3CCNC3=O)sc21 [Example 77, 1-(2-Ethoxyethyl)-5-methyl-3-(1-methylcyclopropyl)-6-[(2-oxoimidazolidin-1-yl)methyl]thieno[2,3-d]pyrimidine-2,4(1H,3H)-dione]"
7,110,"Cc1c(CN2CCNC2=O)sc2c1c(=O)n(C1(C)CC1)c(=O)n2CCOC(C)C [Example 79, 1-(2-Isopropoxyethyl)-5-methyl-3-(1-methylcyclopropyl)-6-[(2-oxoimidazolidin-1-yl)methyl]thieno[2,3-d]pyrimidine-2,4(1H,3H)-dione]"
8,39,"Cc1c(CN2CCNC2=O)sc2c1c(=O)n(C1(C)CC1)c(=O)n2C[C@H]1CCCO1 [Example 81, 5-Methyl-3-(1-methylcyclopropyl)-6-[(2-oxoimidazolidin-1-yl)methyl]-1-[(2R)-tetrahydrofuran-2-ylmethyl]thieno[2,3-d]pyrimidine-2,4(1H,3H)-dione]"
9,77,"Cc1c(CN2CCNC2=O)sc2c1c(=O)n(C1(C)CC1)c(=O)n2C[C@@H]1CCCO1 [Example 82, 5-Methyl-3-(1-methylcyclopropyl)-6-[(2-oxoimidazolidin-1-yl)methyl]-1-[(2S)-tetrahydrofuran-2-ylmethyl]thieno[2,3-d]pyrimidine-2,4(1H,3H)-dione]"
10,41,"CCC1(n2c(=O)c3c(C)c(CN4CCNC4=O)sc3n(CCC(F)(F)F)c2=O)CC1 [Example 106, 3-(1-Ethylcyclopropyl)-5-methyl-6-[(2-oxoimidazolidin-1-yl)methyl]-1-(3,3,3-trifluoropropyl)thieno[2,3-d]pyrimidine-2,4(1H,3H)-dione]"
11,110,"CCC1(n2c(=O)c3c(C)c(CN4CCNC4=O)sc3n(CCOC)c2=O)CC1 [Example 108, 3-(1-Ethylcyclopropyl)-1-(2-methoxyethyl)-5-methyl-6-[(2-oxoimidazolidin-1-yl)methyl]thieno[2,3-d]pyrimidine-2,4(1H,3H)-dione]"
12,0.59,"Cc1c(CN2CCNC2=O)sc2c1c(=O)n(C1CCC1)c(=O)n2CCC(F)(F)F [Example 110, 3-Cyclobutyl-5-methyl-6-[(2-oxoimidazolidin-1-yl)methyl]-1-(3,3,3-trifluoropropyl)thieno[2,3-d]pyrimidine-2,4(1H,3H)-dione]"
13,1.7,"Cc1c(CN2CCNC2=NC#N)sc2c1c(=O)n(C1CCC1)c(=O)n2CCC(F)(F)F [Example 111, [1-{[3-Cyclobutyl-5-methyl-2,4-dioxo-1-(3,3,3-trifluoropropyl)-1,2,3,4-tetrahydrothieno[2,3-d]pyrimidin-6-yl]methyl}imidazolidin-2-ylidene]cyanamide]"
14,1.2,"COC(=O)N=C1NCCN1Cc1sc2c(c1C)c(=O)n(C1CCC1)c(=O)n2CCC(F)(F)F [Example 112, Methyl [1-{[3-cyclobutyl-5-methyl-2,4-dioxo-1-(3,3,3-trifluoropropyl)-1,2,3,4-tetrahydrothieno[2,3-d]pyrimidin-6-yl]methyl}imidazolidin-2-ylidene]carbamate]"
15,2,"Cc1c(CN2CCNC(=O)C2=O)sc2c1c(=O)n(C1CCC1)c(=O)n2CCC(F)(F)F [Example 113, 3-Cyclobutyl-6-[(2,3-dioxopiperazin-1-yl)methyl]-5-methyl-1-(3,3,3-trifluoropropyl)thieno[2,3-d]pyrimidine-2,4(1H,3H)-dione]"
